From patent US7238720B2, “Pharmaceutical use of N-carbamoylazole derivatives” (Eisai R & D Management Co. Ltd., priority 2001, dated 2007)
Each block holds one compound with its values, some of them ahead of it.

Columns and labels:
[1] = target: T1, DPP-IV, obtained from porcine kidneys (Sus scrofa, UniProt P22411); test: Measurement of DPPIV inhibiting effects (Gly-Pro-p-nitroanilide, absorbance at 405 nm); format: biochemical; conditions: porcine kidney DPP-IV 10 mU/mL, 20 min preincubation, Gly-Pro-p-nitroanilide 0.33 mM, pH 7.4
T1 construct: DPP-IV, obtained from porcine kidneys; from tissue; host or cells: porcine kidney
Experimental: Measurement of DPPIV Inhibiting Effects
DPP-IV, obtained from porcine kidneys, was dissolved in a reaction buffer solution (50 mM Tris-HCl, pH 7.4, 0.1% BSA) such that the concentration of DPP-IV was at 10 mU/mL. This solution (110 μl) was placed into test tubes, to which compounds to be tested were further added at a quantity of 15 μl and incubated at room temperature for 20 minutes. Twenty-five microliters of a solution in which Gly-Pro-p-nitroanilide was dissolved at 2 mM was added (final concentration, 0.33 mM) to start the enzymatic reaction. The reaction time was 20 minutes. The reaction was stopped by the addition of 25 μl of 1 N phosphoric acid.

male C57BL/6N mice [2] = test: Glucose-tolerance improving effects in normal mice, Experiments 1 and 2 (compound given orally mixed with glucose); format: in vivo; conditions: for Blood Glucose, At Indicated Times (min.) After Oral Administration: mean ± standard error
Experimental: (§1) Test for Identifying Glucose-Tolerance Improving Effects
(§2) Effects on Glucose-Tolerance Ability of Normal Mice
(§3) Animals: Five or six male C57BL/6N mice per group (purchased from Charles River Japan, Inc.).
Compounds to be tested were suspended in a 0.5% aqueous solution of methylcellulose and mixed with an equal volume of a glucose solution, and administered orally at a volume of 10 ml/kg at doses indicated in Tables below. Vehicle control groups received orally a mixture of a 0.5% aqueous solution of methylcellulose and an equal volume of a glucose solution at a volume of 10 ml/kg. Glucose was given at a dose of 2 g/kg.
The blood was drawn from the tail vein immediately before and at 30, 60, and 120 minutes after the administration of mixed solutions of the compounds to be tested and glucose, and subjected to the measurement of the blood glucose value.
(§4) The tail vein of the mice was injured, without anesthesia, with a razor to cause slight bleeding. Ten microliters of blood was collected, and mixed immediately with […] of 0.6 M perchloric acid. The glucose in supernatants obtained by centrifugation (1500 g, 10 min. 4° C., in a cooled centrifuge GS-6KR from Beckman Ltd.) was determined employing a Glucose CII Test Wako kit (Wako Pure Chemical Industries, Ltd.).
(§5) The results are expressed by mean value±standard error.

male C57BL/6N mice [3] = test: Glucose-tolerance improving effects in normal mice, Experiment 3 (compound given orally 30 minutes before glucose); format: in vivo; conditions: for Blood Glucose, At Indicated Times After Glucose-Solution Administration (min.): 1 mg/kg oral 30 min before glucose 2 g/kg, mean ± standard error
Experimental: as §1, §2, §3
The suspension of the compound to be tested and 0.5% methylcellulose solution which was the vehicle control group were administered orally at a volume of 10 ml/kg, and at 30 minutes after administration, a glucose solution was administered orally at a volume of 10 ml/kg. Glucose was given at a dose of 2 g/kg.
The blood was drawn from the tail vein immediately before the administration of the compound to be tested, and immediately before and at 30, 60, and 120 minutes after the administration of the glucose solution, and subjected to the measurement of the blood glucose value.
as §4, §5

T1 sequence (P22411 whole entry): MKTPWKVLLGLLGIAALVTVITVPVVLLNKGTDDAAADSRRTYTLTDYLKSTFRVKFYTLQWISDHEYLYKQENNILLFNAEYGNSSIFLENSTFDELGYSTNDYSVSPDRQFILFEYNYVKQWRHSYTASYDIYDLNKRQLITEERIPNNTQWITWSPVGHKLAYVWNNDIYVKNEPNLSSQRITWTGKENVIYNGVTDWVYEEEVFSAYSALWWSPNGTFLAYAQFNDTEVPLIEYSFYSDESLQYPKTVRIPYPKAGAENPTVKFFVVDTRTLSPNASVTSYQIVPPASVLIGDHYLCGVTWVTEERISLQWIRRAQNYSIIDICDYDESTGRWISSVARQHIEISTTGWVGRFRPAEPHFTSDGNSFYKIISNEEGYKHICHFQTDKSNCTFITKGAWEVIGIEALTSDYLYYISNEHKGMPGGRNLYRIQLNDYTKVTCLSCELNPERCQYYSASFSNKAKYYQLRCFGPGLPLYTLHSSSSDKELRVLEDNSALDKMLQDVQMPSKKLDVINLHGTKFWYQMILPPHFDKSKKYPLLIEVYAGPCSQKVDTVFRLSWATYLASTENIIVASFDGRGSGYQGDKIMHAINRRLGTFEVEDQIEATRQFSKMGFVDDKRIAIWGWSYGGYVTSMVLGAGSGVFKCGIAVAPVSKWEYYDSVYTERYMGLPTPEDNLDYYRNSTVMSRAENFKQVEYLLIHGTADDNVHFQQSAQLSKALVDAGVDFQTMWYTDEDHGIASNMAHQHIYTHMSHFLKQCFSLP

Compound: CN(C)C(=O)n1cnc(S(=O)(=O)[C@@H]2C[C@@H]3CC[C@H]2C3)n1 (relative stereo) [Example 13, 3-(Endo-norbornan-2-yl)sulfonyl-1-dimethylcarbamoyl-1H-1,2,4-triazole]
IC50 [1]: 164 nM
Blood Glucose, At Indicated Times (min.) After Oral Administration (male C57BL/6N mice [2]; Experiment 2, 3 mg/kg oral with glucose 2 g/kg, 0 min (immediately before administration)): 73.9 ± 3.0 mg/dL
Blood Glucose, At Indicated Times (min.) After Oral Administration (male C57BL/6N mice [2]; Experiment 2, 3 mg/kg oral with glucose 2 g/kg, 30 min): 177.7 ± 6.3 mg/dL
Blood Glucose, At Indicated Times (min.) After Oral Administration (male C57BL/6N mice [2]; Experiment 2, 3 mg/kg oral with glucose 2 g/kg, 60 min): 139.7 ± 6.7 mg/dL
Blood Glucose, At Indicated Times (min.) After Oral Administration (male C57BL/6N mice [2]; Experiment 2, 3 mg/kg oral with glucose 2 g/kg, 120 min): 92.5 ± 2.4 mg/dL
Blood Glucose, At Indicated Times (min.) After Oral Administration (male C57BL/6N mice [2]; Experiment 2, 10 mg/kg oral with glucose 2 g/kg, 0 min (immediately before administration)): 73.3 ± 2.8 mg/dL
Blood Glucose, At Indicated Times (min.) After Oral Administration (male C57BL/6N mice [2]; Experiment 2, 10 mg/kg oral with glucose 2 g/kg, 30 min): 159.9 ± 9.9 mg/dL
Blood Glucose, At Indicated Times (min.) After Oral Administration (male C57BL/6N mice [2]; Experiment 2, 10 mg/kg oral with glucose 2 g/kg, 60 min): 129.3 ± 9.1 mg/dL
Blood Glucose, At Indicated Times (min.) After Oral Administration (male C57BL/6N mice [2]; Experiment 2, 10 mg/kg oral with glucose 2 g/kg, 120 min): 90.6 ± 3.2 mg/dL
Blood Glucose, At Indicated Times (min.) After Oral Administration (male C57BL/6N mice [2]; Experiment 2, 30 mg/kg oral with glucose 2 g/kg, 0 min (immediately before administration)): 70.4 ± 4.0 mg/dL
Blood Glucose, At Indicated Times (min.) After Oral Administration (male C57BL/6N mice [2]; Experiment 2, 30 mg/kg oral with glucose 2 g/kg, 30 min): 148.7 ± 5.1 mg/dL
Blood Glucose, At Indicated Times (min.) After Oral Administration (male C57BL/6N mice [2]; Experiment 2, 30 mg/kg oral with glucose 2 g/kg, 60 min): 127.3 ± 5.9 mg/dL
Blood Glucose, At Indicated Times (min.) After Oral Administration (male C57BL/6N mice [2]; Experiment 2, 30 mg/kg oral with glucose 2 g/kg, 120 min): 93.7 ± 2.3 mg/dL
Blood Glucose, At Indicated Times (min.) After Oral Administration (male C57BL/6N mice [2]; Experiment 2, 100 mg/kg oral with glucose 2 g/kg, 0 min (immediately before administration)): 72.0 ± 2.1 mg/dL
Blood Glucose, At Indicated Times (min.) After Oral Administration (male C57BL/6N mice [2]; Experiment 2, 100 mg/kg oral with glucose 2 g/kg, 30 min): 147.1 ± 16.2 mg/dL
Blood Glucose, At Indicated Times (min.) After Oral Administration (male C57BL/6N mice [2]; Experiment 2, 100 mg/kg oral with glucose 2 g/kg, 60 min): 133.7 ± 8.8 mg/dL
Blood Glucose, At Indicated Times (min.) After Oral Administration (male C57BL/6N mice [2]; Experiment 2, 100 mg/kg oral with glucose 2 g/kg, 120 min): 106.2 ± 5.4 mg/dL
effect on glucose-tolerance ability of normal mice (male C57BL/6N mice [2]; oral administration, Experiments 1 and 2, result in words): distinct effect

Compound: CN(C)C(=O)n1cnc(S(=O)(=O)Cc2ccccc2)n1 [Example 2, 3-Benzylsulfonyl-1-dimethylcarbamoyl-1H-1,2,4-triazole]
IC50 [1]: 1390 nM
Blood Glucose, At Indicated Times (min.) After Oral Administration (male C57BL/6N mice [2]; Experiment 1, 30 mg/kg oral with glucose 2 g/kg, 0 min (immediately before administration)): 75.8 ± 1.5 mg/dL
Blood Glucose, At Indicated Times (min.) After Oral Administration (male C57BL/6N mice [2]; Experiment 1, 30 mg/kg oral with glucose 2 g/kg, 30 min): 159.8 ± 5.5 mg/dL
Blood Glucose, At Indicated Times (min.) After Oral Administration (male C57BL/6N mice [2]; Experiment 1, 30 mg/kg oral with glucose 2 g/kg, 60 min): 133.8 ± 4.1 mg/dL
Blood Glucose, At Indicated Times (min.) After Oral Administration (male C57BL/6N mice [2]; Experiment 1, 30 mg/kg oral with glucose 2 g/kg, 120 min): 109.6 ± 3.0 mg/dL

Compound: COCCOc1cccc(C)c1S(=O)(=O)c1ncn(C(=O)N(C)C)n1 [Example 43, 3-[2-(2-Methoxyethyl)oxy-6-methylphenyl]sulfonyl-1-dimethylcarbamoyl-1H-1,2,4-triazole]
IC50 [1]: 4.34 nM
Blood Glucose, At Indicated Times After Glucose-Solution Administration (min.) (male C57BL/6N mice [3]; 0 min (immediately before glucose)): 89.8 ± 2.1 mg/dL
Blood Glucose, At Indicated Times After Glucose-Solution Administration (min.) (male C57BL/6N mice [3]; 30 min): 173.8 ± 5.1 mg/dL
Blood Glucose, At Indicated Times After Glucose-Solution Administration (min.) (male C57BL/6N mice [3]; 60 min): 170.8 ± 5.7 mg/dL
Blood Glucose, At Indicated Times After Glucose-Solution Administration (min.) (male C57BL/6N mice [3]; 120 min): 112.1 ± 2.5 mg/dL
Blood Glucose, At Indicated Times After Glucose-Solution Administration (min.) (male C57BL/6N mice [3]; −30 min (immediately before compound administration)): 70.8 ± 1.5 mg/dL
effect on glucose-tolerance ability of normal mice (male C57BL/6N mice [3]; oral administration, result in words): distinct effect

Compound: CN(C)C(=O)n1cnc(S(=O)(=O)c2cccc(Br)n2)n1 [Example 53, 3-(6-Bromo-2-pyridyl)sulfonyl-1-dimethylcarbamoyl-1H-1,2,4-triazole]
IC50 [1]: 351 nM

Compound: CN(C)C(=O)n1cnc(S(=O)(=O)N2CCCCC2)n1 [Example 54, 3-(Piperidin-1-yl)sulfonyl-1-dimethylcarbamoyl-1H-1,2,4-triazole]
IC50 [1]: 164 nM

Compound: CN(C)C(=O)n1cnc(S(=O)(=O)N2C3CCCC2CC3)n1 [Example 55, 3-(8-Azabicyclo[3.2.1]octan-8-yl)sulfonyl-1-dimethylcarbamoyl-1H-1,2,4-triazole]
IC50 [1]: 96.1 nM

Compound: Cc1cc(C)n(S(=O)(=O)c2ncn(C(=O)N(C)C)n2)n1 [Example 56, 3-(3,5-Dimethylpyrazol-1-yl)sulfonyl-1-dimethylcarbamoyl-1H-1,2,4-triazole]
IC50 [1]: 101 nM

Compound: CN(C)C(=O)n1cnc(S(=O)(=O)N(C)c2ccc(Cl)cc2)n1 [Example 58, 3-[N-(4-chlorophenyl)-N-methylamino]sulfonyl-1-dimethylcarbamoyl-1H-1,2,4-triazole]
IC50 [1]: 15.7 nM

Compound: Cc1ccc(S(=O)(=O)c2ccn(C(=O)N(C)C)n2)cc1 [Example 59, 3-(4-Toluenesulfonyl)-1-dimethylcarbamoyl-1H-pyrazole]
IC50 [1]: 4220 nM

Next, values leading:

IC50 [1]: 25.8 nM
Compound: Cc1nn(-c2ccccc2)c(C)c1S(=O)(=O)c1ncn(C(=O)N(C)C)n1 [Example 49, 3-(3,5-Dimethyl-1-phenylpyrazol-4-yl)sulfonyl-1-dimethylcarbamoyl-1H-1,2,4-triazole]

IC50 [1]: 5380 nM
Compound: Cc1nc2ccccn2c1Sc1ncn(C(=O)N(C)C)n1 [Example 50, 3-(2-Methylimidazo[1,2-a]pyridin-3-yl)thio-1-dimethylcarbamoyl-1H-1,2,4-triazole]

IC50 [1]: 106 nM
Compound: Cc1nc2ccccn2c1S(=O)(=O)c1ncn(C(=O)N(C)C)n1 [Example 51, 3-(2-Methylimidazo[1,2-a]pyridin-3-yl)sulfonyl-1-dimethylcarbamoyl-1H-1,2,4-triazole]

IC50 [1]: 4790 nM
Compound: CN(C)C(=O)n1cnc(Sc2cccc(Br)n2)n1 [Example 52, 3-(6-Bromo-2-pyridyl)thio-1-dimethylcarbamoyl-1H-1,2,4-triazole]

IC50 [1]: 230 nM
Compound: CN(C)C(=O)n1cnc(S(=O)(=O)N2CCc3ccccc32)n1 [Example 57, 3-(2,3-Dihydro-1H-indol-1-yl)sulfonyl-1-dimethylcarbamoyl-1H-1,2,4-triazole]

IC50 [1]: 335 nM
Compound: Cc1ccc(S(=O)(=O)c2ncn(C(=O)N(C)C)n2)cc1 [Example 60, 3-(4-Toluenesulfonyl)-1-dimethylcarbamoyl-1H-1,2,4-triazole]
